What was measured:
PC12 cells = test: Cell death under serum deprivation (apoptotic cell death detection ELISA), PC12; format: cell-based, rat; conditions: PC12, 24 h serum deprivation, significant at 1 and 10 μM
Procedure: Two different neuronal cell lines were used: the rat PC12 and the human neuroblastoma SH-SY5Y cells.
PC12 cells, originated from rat pheochromocytoma, were grown to confluence in T75 flasks containing DMEM (1000 mg/l glucose) and supplemented with 5% FCS, 10% horse serum, and a mixture of 1% of penicillin/streptomycin/nystatin.
Cell cultures were incubated at 37° C. in a humid 5% CO2-95% air environment. For cell viability assays, cells were treated with various drugs in serum free media containing 0.1% BSA.
In order to test cell viability, PC12 cells and SH-SY5Y neuroblastoma cels were incubated under serum deprivation and were untreated or treated with rasagiline (0.1. 1 or 10 μM) for 24 hours.

[1] = system: Bcl-2 family and PKC isoform mRNA; test: Gene expression by quantitative real-time RT-PCR in serum-free PC12 cells; format: cell-based, rat; conditions: 1 μM, 24 h, serum-free PC12
Procedure: (vi) Total RNA extraction. PC12 cells were cultured in DMEM containing 5% FCS and 10% horse serum until confluence. At the day of the experiment, the medium was replaced with fresh medium without serum and rasagiline or propargylamine at various concentrations were administered for 24 h. At the end of incubation, the medium was removed and isolation of total RNA was performed, using Tri Reagent™ Isolation reagent. Total RNA was treated with DNase-RNase free (Roche Diagnostics, Mannheim, Germany) for 30 min at 37° C. and subsequently extracted by a round of phenol:chlorophorm:isoamylalcohol (25:24:1), followed by one of chloroform. After precipitation with NaOAc (0.3 M) and ethyl alcohol, the RNA pellet was washed with 80% ethyl alcohol (12,000×g) for 10 min and resuspended in 50-100 μl of diethylpyrocarbonate (DEPC)-treated water and incubated for 5-10 min at 56° C. to facilitate resuspension.
(vi) Reverse transcription (RT) and quantitative real-time RT-PCR. In order to confirm the results obtained with the customized cDNA expression micro-array, 2 μg of total RNA were denatured and reverse transcribed using random hexanucleotides (0.5 μg/μl). Secondary structures of the template and primer (total volume of 16 μl) were opened by incubation for 5 min at 70° C. and immediately cooled on ice. Reaction mix (9 μl) containing reaction buffer, dNTP (0.5 mm each), RNAasin™ RNAase inhibitor (Promega) (25U) and M-MLV reverse transcriptase (200U) was added and samples were incubated at 39° C. for 1 h. For every RNA preparation a negative control was run in parallel consisting of a direct amplification of the RNA sample, omitting the RT step. The samples were transferred to 92° C. for 10 min, in order to deactivate the enzyme, and then cooled to 4° C.
Quantitative real-time PCR, using LightCycler and FastStart DNA Master SYBR Green I ready-to use PCR mix, was performed according to the manufacture's protocol (Roche Diagnostics, Mannheim, Germany). cDNA (40 ng) was amplified in 20 μl total volume. The sequences of the primers and the size of the products are described in Table 1. The results are analyzed on the provided program of the LightCycler. The relative expression level of a given mRNA was assessed by normalizing to the housekeeping gene 18S-rRNA and compared with control values.
In this experiment, we examined whether Bcl-2 family proteins mediate the pro-survival effect of rasagiline, using serum-starved rat pheochromocytoma PC12 cell line as a model of neuronal apoptosis. PC12 cells were maintained in full-serum (control), or in serum-free (SF) media in the absence or presence of various concentrations of rasagiline (0.001, 0.1, 1 and 10 μM) for 3 h or 24 h, and gene expression was measured by quantitative real-time RT-PC. The real-time RT-PCR consists of RNA samples isolated from said PC-12 cells. Each gene expression was normalized to the housekeeping gene, 18S-rRNA, since this transcript was reported to be less susceptible to the influence by external factors.
The effect of propargylamine on Bad and Bax mRNA levels was examined as described in Example 5 above.

rat brain MAO-B = target: T1, rat brain MAO-B (Rattus norvegicus, UniProt P19643); test: In vitro inhibition of rat brain MAO-B; format: biochemical
T1 construct: from tissue; host or cells: rat brain homogenate
T1 sequence (P19643 1-520): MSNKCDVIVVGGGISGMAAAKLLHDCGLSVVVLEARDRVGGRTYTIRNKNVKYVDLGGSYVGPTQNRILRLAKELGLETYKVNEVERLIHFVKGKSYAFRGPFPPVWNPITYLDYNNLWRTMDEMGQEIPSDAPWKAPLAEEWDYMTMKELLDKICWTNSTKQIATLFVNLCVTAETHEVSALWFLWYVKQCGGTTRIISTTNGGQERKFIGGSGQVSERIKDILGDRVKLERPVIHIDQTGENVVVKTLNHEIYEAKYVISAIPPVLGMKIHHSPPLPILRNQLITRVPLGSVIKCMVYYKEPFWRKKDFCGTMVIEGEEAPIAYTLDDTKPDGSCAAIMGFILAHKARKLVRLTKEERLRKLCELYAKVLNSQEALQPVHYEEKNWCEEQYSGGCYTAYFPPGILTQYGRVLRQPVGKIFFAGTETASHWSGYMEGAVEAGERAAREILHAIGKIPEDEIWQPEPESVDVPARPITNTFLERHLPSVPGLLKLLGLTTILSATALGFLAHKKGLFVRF
Procedure: To determine the activity of MAO-A and MAO-B, the test compound is added to a suitable dilution of the enzyme preparation from rat brain (70 μg protein for MAO-B and 150 μg MAO-A assay) in 0.05 M phosphate buffer (pH 7.4). Tthe mixture is incubated together with […], a specific inhibitor of MAO-B (for determination of MAO-A) or with […], a specific inhibitor of MAO-A (for determination of MAO-B). Incubation is carried for 1 h at 37° C. before addition of ^14C-5-hydroxytryptamine binoxalate ([…]), for determination of MAO-A, or ^14C-phenylethylamine ([…]), for determination of MAO-B, and incubation is continued for 30 min or 20 min, respectively. The reaction is stopped with 2 M ice-cold citric acid, and the metabolites are extracted and determined by liquid-scintillation counting in cpm units.
In another experiment, the in vitro inhibitory activity of propargylamine (P) against rat brain MAO-B was tested. Propargylamine (0.1, 1, 10, 100 μM) was added to buffer containing 0.05 μM clorgylin and was incubated with the tissue homogenate for 60 minutes at 37° C. before addition of ^14C-5-phenylethylamine. MAO-BA activity in presence of the test compound was expressed as a percentage of that in control samples. Mean values shown±SEM.

C#CCN [propargylamine]
cell death induced by serum deprivation (PC12 cells): significantly reduced cell death | Bad gene expression [1]: restored both Bax and Bad gene expressions to that of full serum level | Bax gene expression [1]: restored both Bax and Bad gene expressions to that of full serum level | MAO-B versus MAO-A selectivity (rat brain MAO-B; from IC50 values, rat brain): preferentially selective for MAO-B inhibition | IC50 (rat brain MAO-B; rat brain homogenate, 60 min preincubation at 37° C., 14C-phenylethylamine): ~10 µM
